In one test the target is T1, Pdr5p ATPase (Saccharomyces cerevisiae, UniProt P33302).
T1 construct: plasma membranes from the AD124567 yeast strain overexpressing Pdr5p; endogenous in cells; host or cells: S. cerevisiae AD124567 (pdr1-3, PDR5 intact), plasma membrane fraction
Briefly: Oligomycin sensitive ATPase activity of AD124567 plasma membranes. Type of test: biochemical, S. cerevisiae. The method, then:
(A) Inhibition profiles of oligomycin-sensitive Pdr5p ATPase activity by the purified peptides D-NH2-asparagine-tryptophan-tryptophan-lysine-valine-arginine-arginine-arginine-CONH2 (KN0) and its singly substituted Mtr-derivative KN20. (B) Inhibition profile with KN20 on the oligomycin-sensitive Cdr1p ATPase activity of plasma membranes from AD1002 minus the oligomycin-sensitive ATPase activity of plasma membranes from the isogenic AD1-8u^− strain.
Yeast were grown in YEPD, pH 5.5 at 30° C. until they reached late-exponential phase of growth (OD600 nm=7), washed twice in ice-cold distilled water, and incubated on ice for 30 min to minimize glucose-stimulated Pma1p activity. Cells were resuspended in homogenising medium (50 mM Tris pH 7.5, 2 mM EDTA and 1 mM phenylmethylsulfonyl fluoride) and disrupted using a Braun Homogeniser. Cell debris and unbroken cells were removed by centrifuging at 2,000×g at 4° C. for 10 min. A crude membrane fraction was isolated from the cell-free supernatant by centrifuging at 30,000×g at 4° C. for 45 min. Plasma membranes were prepared by centrifugation of the supernatant obtained after selective precipitation of mitochondria at pH 5.2 as described previously (Goffeau, A. and Dufour, J. P., 1988). […] Protein was determined using a micro-Bradford (Bio-Rad Laboratories, Hercules, Calif. [Bradford, M. M., 1976]) assay with gamma-globulin as standard. Nucleotide triphosphatase activity was measured by incubating the plasma membrane fractions (10 μg) at 30° C. in a final volume of 120 μl containing 6 mM NTP, 7 mM MgSO4 in 59 mM MES-Tris buffer pH 6.0-8.0. […] Other ATPase inhibitors (20 μM oligomycin, 20 μM aurovertin B or 100 μM vanadate were added to the reaction where indicated. After 30 min the reaction was stopped by adding 130 μl of a solution containing 1% (w/v) SDS, 0.6 M H2SO4, 1.2% (w/v) ammonium molybdate and 1.6% (w/v) ascorbic acid. Inorganic phosphate released from NTPs was measured at 750 nm after 10 min incubation at room temperature.

For a further test, the target named is T2, Cdr1p ATPase (Candida albicans, UniProt P43071, E1416A/I916V/K1177E/L1021S/Q214E/T842S/Y427F).
T2 construct: expressed in transfected cells; host or cells: S. cerevisiae AD1-8u- with pKEN1002 integrated at the PDR5 locus (strain AD1002), plasma membrane fraction
T2 sequence (P43071 whole entry Q214E/Y427F/T842S/I916V/L1021S/K1177E/E1416A): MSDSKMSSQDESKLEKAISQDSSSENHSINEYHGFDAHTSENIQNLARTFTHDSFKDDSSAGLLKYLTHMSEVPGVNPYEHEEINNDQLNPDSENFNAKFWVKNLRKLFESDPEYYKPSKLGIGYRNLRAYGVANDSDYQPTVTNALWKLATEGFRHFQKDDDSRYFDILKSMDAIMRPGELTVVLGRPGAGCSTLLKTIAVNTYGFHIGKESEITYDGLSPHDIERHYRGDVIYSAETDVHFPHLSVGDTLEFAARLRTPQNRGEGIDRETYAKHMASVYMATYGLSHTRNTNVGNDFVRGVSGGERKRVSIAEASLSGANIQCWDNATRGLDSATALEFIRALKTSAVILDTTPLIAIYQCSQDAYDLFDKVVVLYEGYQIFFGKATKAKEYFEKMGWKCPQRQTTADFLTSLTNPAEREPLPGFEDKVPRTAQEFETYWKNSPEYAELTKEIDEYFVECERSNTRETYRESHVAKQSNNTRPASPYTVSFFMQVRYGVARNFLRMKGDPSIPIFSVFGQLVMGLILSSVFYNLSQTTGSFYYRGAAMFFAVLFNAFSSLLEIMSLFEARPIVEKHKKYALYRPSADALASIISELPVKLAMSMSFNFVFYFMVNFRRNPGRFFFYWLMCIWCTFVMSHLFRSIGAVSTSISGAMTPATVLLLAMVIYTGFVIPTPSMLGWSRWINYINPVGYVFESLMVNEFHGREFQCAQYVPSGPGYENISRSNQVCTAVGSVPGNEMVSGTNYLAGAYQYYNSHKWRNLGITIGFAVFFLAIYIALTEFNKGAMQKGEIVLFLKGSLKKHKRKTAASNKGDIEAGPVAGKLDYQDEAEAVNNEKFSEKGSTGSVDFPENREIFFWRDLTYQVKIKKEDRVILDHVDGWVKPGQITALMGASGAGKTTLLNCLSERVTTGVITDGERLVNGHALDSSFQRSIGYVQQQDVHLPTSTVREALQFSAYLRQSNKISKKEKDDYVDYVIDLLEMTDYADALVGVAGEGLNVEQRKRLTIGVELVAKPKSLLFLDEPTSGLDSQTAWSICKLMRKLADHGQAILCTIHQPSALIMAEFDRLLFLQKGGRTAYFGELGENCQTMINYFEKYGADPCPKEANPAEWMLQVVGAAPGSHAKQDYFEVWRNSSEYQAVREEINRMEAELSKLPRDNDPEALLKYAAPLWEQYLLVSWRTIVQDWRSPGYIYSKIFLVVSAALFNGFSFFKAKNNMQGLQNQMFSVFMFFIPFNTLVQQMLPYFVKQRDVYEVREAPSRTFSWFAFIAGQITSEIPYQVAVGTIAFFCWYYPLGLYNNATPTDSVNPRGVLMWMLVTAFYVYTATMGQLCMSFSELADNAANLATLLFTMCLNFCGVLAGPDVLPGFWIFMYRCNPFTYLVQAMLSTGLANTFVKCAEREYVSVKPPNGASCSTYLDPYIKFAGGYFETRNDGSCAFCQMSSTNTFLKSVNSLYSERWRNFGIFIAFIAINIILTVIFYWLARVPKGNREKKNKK
The test can be described thus: Oligomycin sensitive ATPase/NTPase activity of AD1002 plasma membranes. Type of test: biochemical, C. albicans. The method, then:
Membrane fractions were isolated from S. cerevisiae AD1002 (▪) or parental AD1-8u^− cells (●). ATPase assays were carried out at 30° C. for 30 min, as described in Materials and methods for Example 2. The oligomycin-sensitive activity was determined as the difference in ATPase activity in the presence and absence of 20 μM oligomycin. […] The results are the means (+/−SD) of four determinations carried out on two membrane preparations.
(B) Inhibition profile with KN20 on the oligomycin-sensitive Cdr1p ATPase activity of plasma membranes from AD1002 minus the oligomycin-sensitive ATPase activity of plasma membranes from the isogenic AD1-8u^− strain.
Yeast were grown in YEPD, pH 5.5 at 30° C. until they reached late-exponential phase of growth (OD600 nm=7), washed twice in ice-cold distilled water, and incubated on ice for 30 min to minimize glucose-stimulated Pma1p activity. Cells were resuspended in homogenising medium (50 mM Tris pH 7.5, 2 mM EDTA and 1 mM phenylmethylsulfonyl fluoride) and disrupted using a Braun Homogeniser. Cell debris and unbroken cells were removed by centrifuging at 2,000×g at 4° C. for 10 min. A crude membrane fraction was isolated from the cell-free supernatant by centrifuging at 30,000×g at 4° C. for 45 min. Plasma membranes were prepared by centrifugation of the supernatant obtained after selective precipitation of mitochondria at pH 5.2 as described previously (Goffeau, A. and Dufour, J. P., 1988). The plasma membranes were resuspended in 10 mM Tris pH 7.0, 0.5 mM EDTA and 20% [v/v] glycerol and stored at −80° C. Protein was determined using a micro-Bradford (Bio-Rad Laboratories, Hercules, Calif. [Bradford, M. M., 1976]) assay with gamma-globulin as standard. Nucleotide triphosphatase activity was measured by incubating the plasma membrane fractions (10 μg) at 30° C. in a final volume of 120 μl containing 6 mM NTP, 7 mM MgSO4 in 59 mM MES-Tris buffer pH 6.0-8.0. To eliminate possible contributions from nonspecific phosphatases, vacuolar, or mitochondrial ATPases, 0.2 mM ammonium molybdate, 50 mM KNO3 and 10 mM NaN3, respectively, were included in assays (Monk B C, et al, 1991). Other ATPase inhibitors (20 μM oligomycin, 20 μM aurovertin B or 100 μM vanadate were added to the reaction where indicated. After 30 min the reaction was stopped by adding 130 μl of a solution containing 1% (w/v) SDS, 0.6 M H2SO4, 1.2% (w/v) ammonium molybdate and 1.6% (w/v) ascorbic acid. Inorganic phosphate released from NTPs was measured at 750 nm after 10 min incubation at room temperature.

Another test has as its system C. albicans FR2 (Ben^Rp). The test can be described thus: Checkerboard chemosensitisation to fluconazole. Type of test: cell-based. The method, then:
(§1) Checkerboard drug susceptibility assays were used to measure the chemosensitisation of cells to fluconazole by test compounds such as Pdr5p inhibitors. Fluconazole concentration in the CSM-URA medium was varied in one dimension (between 0 and 80 μg/ml) and the concentration of the test compound was varied in the second dimension (between 0 and 40 μM). Cell inocula, growth conditions and the optical determination of growth were identical to standard liquid MIC determinations. The assays were conducted in 6 by 6 well arrays centred in a 96 well microtitre plate using buffered CSM-URA medium at pH 7.0, with fluconazole and/or peptide included in each well at the indicated concentration.

A further test concerns C. dubliniensis CD36. The test can be described thus: Checkerboard chemosensitisation to fluconazole. The test is classed as cell-based. The method, then: as §1
A further test relates to C. glabrata CBS138. Briefly: Checkerboard chemosensitisation to fluconazole. The test is classed as cell-based. The method, then: as §1
The test system of a further test is C. krusei B2399. The test can be described thus: Checkerboard chemosensitisation to fluconazole. Type of test: cell-based. The method, then: as §1
The next test has as its system C. tropicalis IFO0618. Briefly: Checkerboard chemosensitisation to fluconazole. Type of test: cell-based. The method, then: as §1
Test [1] concerns S. cerevisiae 1B (CgCdr1p). The test can be described thus: Checkerboard chemosensitisation to fluconazole. The test is classed as cell-based. The method, then:
as §1

For test [2], the system named is S. cerevisiae 27A (CaCdr2p). The test can be described thus: Checkerboard chemosensitisation to fluconazole. Type of test: cell-based. The method, then:
as §1

Test [3] concerns S. cerevisiae 4 (CgPdh1p). Briefly: Checkerboard chemosensitisation to fluconazole. Type of test: cell-based. The method, then: as §1
For test [4], the system named is S. cerevisiae AD12345678u-. The test can be described thus: Checkerboard chemosensitisation to fluconazole. Type of test: cell-based. The method, then:
as §1

Test [5] deals with S. cerevisiae AD124567 (Pdr5p). The test can be described thus: Checkerboard chemosensitisation to fluconazole. The test is classed as cell-based. The method, then:
(A) Checkerboard drug susceptibility assay of AD124567 in the presence of the indicated concentrations of fluconazole and KN20. (B) Disk drug susceptibility assay of AD124567. This assay was conducted, as described in Materials and methods for example 4, in the absence or presence of fluconazole (120 μg/ml), and in the presence of (1) KN0 (47 nanomole), (2) KN20 (47 nanomole) or (0) control amounts of DMSO applied to disks
as §1

For test [6], the system named is S. cerevisiae AD-BEN^R (Ben^Rp). The test can be described thus: Checkerboard chemosensitisation to fluconazole. The test is classed as cell-based. The method, then:
(§2) The assays were conducted, as described in Materials and methods for Example 4, in the presence of the indicated concentrations of fluconazole and KN20. D indicates cell death as measured by a failure to recover any colony forming units when samples from microtitre plate wells were cultured on solid YPD medium.
as §1

In test [7] the test system is S. cerevisiae AD-ERG11 (Erg11p). Briefly: Checkerboard chemosensitisation to fluconazole. Type of test: cell-based. The method, then: as §2, §1

pIC50: −log10 of the molar value. Marks after values point to notes of the source that are not given here.

T1 sequence (P33302 whole entry): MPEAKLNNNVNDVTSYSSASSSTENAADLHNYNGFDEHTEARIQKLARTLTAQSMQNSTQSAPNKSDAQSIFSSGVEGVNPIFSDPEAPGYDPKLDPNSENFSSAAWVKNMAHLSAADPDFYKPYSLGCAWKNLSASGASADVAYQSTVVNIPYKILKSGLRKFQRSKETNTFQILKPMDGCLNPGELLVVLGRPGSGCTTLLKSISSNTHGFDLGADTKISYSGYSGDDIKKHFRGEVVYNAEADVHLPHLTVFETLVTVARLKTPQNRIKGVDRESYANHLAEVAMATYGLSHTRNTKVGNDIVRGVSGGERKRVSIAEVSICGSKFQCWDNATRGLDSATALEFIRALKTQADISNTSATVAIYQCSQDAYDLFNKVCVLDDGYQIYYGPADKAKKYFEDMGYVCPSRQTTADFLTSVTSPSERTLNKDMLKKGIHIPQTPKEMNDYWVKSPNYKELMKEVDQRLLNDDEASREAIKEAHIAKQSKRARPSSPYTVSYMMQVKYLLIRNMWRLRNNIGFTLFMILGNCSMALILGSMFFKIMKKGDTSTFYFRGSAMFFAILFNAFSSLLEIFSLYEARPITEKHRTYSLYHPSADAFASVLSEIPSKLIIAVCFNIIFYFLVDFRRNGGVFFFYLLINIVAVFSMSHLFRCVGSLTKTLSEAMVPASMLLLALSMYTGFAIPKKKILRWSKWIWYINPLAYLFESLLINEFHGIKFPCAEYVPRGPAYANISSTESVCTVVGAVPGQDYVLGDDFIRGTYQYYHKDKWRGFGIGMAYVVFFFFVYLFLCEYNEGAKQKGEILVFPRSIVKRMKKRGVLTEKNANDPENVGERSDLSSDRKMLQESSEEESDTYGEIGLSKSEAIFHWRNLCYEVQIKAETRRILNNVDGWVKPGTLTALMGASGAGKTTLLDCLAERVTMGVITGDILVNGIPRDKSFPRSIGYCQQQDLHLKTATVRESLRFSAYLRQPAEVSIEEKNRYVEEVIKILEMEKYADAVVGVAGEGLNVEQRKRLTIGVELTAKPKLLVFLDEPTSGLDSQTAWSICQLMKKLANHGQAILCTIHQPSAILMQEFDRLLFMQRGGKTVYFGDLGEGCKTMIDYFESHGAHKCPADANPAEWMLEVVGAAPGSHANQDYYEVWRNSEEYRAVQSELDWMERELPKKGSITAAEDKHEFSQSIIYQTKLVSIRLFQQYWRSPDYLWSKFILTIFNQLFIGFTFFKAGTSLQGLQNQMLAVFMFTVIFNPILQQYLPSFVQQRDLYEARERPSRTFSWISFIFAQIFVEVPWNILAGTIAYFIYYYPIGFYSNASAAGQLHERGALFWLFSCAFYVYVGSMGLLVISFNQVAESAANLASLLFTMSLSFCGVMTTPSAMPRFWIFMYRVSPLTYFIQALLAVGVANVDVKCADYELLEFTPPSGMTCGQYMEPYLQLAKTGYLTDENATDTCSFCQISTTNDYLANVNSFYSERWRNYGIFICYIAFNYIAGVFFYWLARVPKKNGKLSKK

For `OC(Cn1cncn1)(Cn1cncn1)c1ccc(F)cc1F` [fluconazole], the “effect on oligomycin sensitive Pdr5p ATPase activity” value on Pdr5p ATPase (in vitro) is listed as “does not affect”. Also, at Cdr1p ATPase (in vitro), the “effect on oligomycin sensitive Cdr1p ATPase activity” value is reported as “does not affect”. For the same compound, the “Chemosensitising concentration FCZ” value in the test with C. albicans FR2 (Ben^Rp) (with KN20) was 8 µg/mL; in the test with C. dubliniensis CD36 it was 0.31 µg/mL; in the test on C. glabrata CBS138 it was 20 µg/mL; in the test with C. krusei B2399, 80 µg/mL; in the test with C. tropicalis IFO0618, 10 µg/mL; in [1] (with KN20), 40 µg/mL. The “Chemosensitising concentration FCZ” value in test [2] (with KN20) was found to be 20 µg/mL; in test [3] (with KN20), 1.25 µg/mL; in test [4] it was 0.125 µg/mL; in test [5] it was 60 µg/mL; in [6] (with KN20), 3.75 µg/mL; in [7], 0.25 µg/mL.
Consider “D-octapeptide NH2-Asn-Trp-Trp-Lys-Val-Arg-Arg-Arg-CONH2 with a single 4-methoxy-2,3,6-trimethylbenzenesulphonyl (Mtr) substituent on one tryptophan sidechain; Pdr5p inhibitor [KN20]”, for which the pIC50 was roughly 5.52 on Pdr5p ATPase (plasma membranes from AD124567 overexpressing Pdr5p, pH 7.5, read-out: 150 for oligomycin sensitive ATPase activity) and roughly 5.10 at Cdr1p ATPase (AD1002 plasma membranes, read-out: 150 for oligomycin sensitive ATPase activity). Moreover, the “Chemosensitising concentration KN20” value in the test with C. albicans FR2 (Ben^Rp) came to 20 µM; with C. dubliniensis CD36 (C. dubliniensis CD36), 80 µM; with C. glabrata CBS138 (C. glabrata CBS138), 40 µM; with C. krusei B2399 (C. krusei B2399), 80 µM; in the test on C. tropicalis IFO0618 (C. tropicalis IFO0618) it was 10 µM; in test [1], 15 µM. For the same compound, the “Chemosensitising concentration KN20” value amounted to 20 µM in test [2]; 20 µM in [3]; 7.5 µM in [4] (S. cerevisiae AD12345678u-); 20 µM in test [5] (AD124567 (Pdr5p)); 20 µM in test [6]; 20 µM in [7] (AD-ERG11 (Erg11p)). The “Fold-sensitisation by KN20 (For FCZ MIC)” value is 4 fold in the test on C. albicans FR2 (Ben^Rp); 64.5^a fold with C. dubliniensis CD36 (C. dubliniensis CD36, resistant tail eliminated); 4 fold in the test with C. glabrata CBS138 (C. glabrata CBS138); 2.5 fold in the test with C. krusei B2399 (C. krusei B2399); 16^a fold in the test on C. tropicalis IFO0618 (C. tropicalis IFO0618, resistant tail eliminated); 8 fold in test [1]. Further, the “Fold-sensitisation by KN20 (For FCZ MIC)” value is recorded as 4 fold in test [2]; 16 fold in test [3]; 2 fold in test [4] (S. cerevisiae AD12345678u-); 10 fold in test [5] (AD124567 (Pdr5p)); 16 fold in [6]; 8 fold in test [7] (AD-ERG11 (Erg11p)). For the same compound, the “KN20 concentration that chemosensitised the Pdr5p overexpressing strain to fluconazole” value in [5] (pH 7) was 30 µM.

These data come from patent US8728797B2, “Yeast membrane protein expression system and its application in drug screening” (priority 2001, dated 2014).
